Experimental findings from US20260159474A1, “Aminoindane Compounds and Compositions and Methods of Their Therapeutic Use” (Solvonis Therapeutics Ireland Holdings Limited, priority 2021, published 2026) are described below.

The target of this data set is T1, human P-glycoprotein transporter (MDCKII-MDR1 cells) (Homo sapiens, UniProt P08183).
T1 construct: expressed in transfected cells; host or cells: MDCKII-MDR1 (Madin-Darby Canine Kidney clone II)
Put plainly: Bidirectional permeability and P-gp substrate assay in MDCKII-MDR1 cells. Type of data set: in vitro ADME. Particulars: for Permeability classification: by Papp; for Papp A→B at 60 min: dog, MDCK, read-out: MDCKII Permeability app A > B; for P-gp Substrate?: efflux ratio >2 and reduced with GF120918 or in mock MDCKII cells. As to the method: Methods: A bidirectional permeability study was conducted to evaluate the apparent permeability (Papp) of therapeutic compounds. Additionally, the MDCKII-MDR1 cell line (Madin-Darby Canine Kidney clone II cell line heterologously expressing the human P-glycoprotein transporter) and mock cell line MDCKII were used to determine whether a compound acted as a P-gp substrate, in the absence and in the presence of a potent P-gp inhibitor. Test control items (digoxin, metoprolol, and atenolol) and control P-gp inhibitor (GF120918) stock solution were prepared in DMSO. Bidirectional assays (Apical to Basolateral [AB] and Basolateral to Apical [BA]) were run, in both the absence and presence of P-gp inhibitor GF120918 in MDCKII-MDR1 and mock cell line MDCKII, using as transport buffer HBSSH at a pH of 7.4 (n=3).
Compounds were tested at a single concentration (i.e. at […]) at one time point (i.e. 60 min). Alternative concentrations or time points may also be investigated. As reference compounds, digoxin (P-gp substrate), atenolol (low permeability) and metoprolol (high permeability) were included at a single concentration (e.g., 10 or […]) and at single time point (e.g., 60 min). Digoxin transport was evaluated in two directions (apical-to-basolateral [AB] and basolateral-to-apical [BA]) in the absence and presence of GF120918 or in mock cells, MDCKII (n=3). Atenolol and metoprolol were only tested in the AB direction in absence of P-gp inhibitor GF120918 or in mock cells, MDCKII (n=3). The integrity of the cell monolayer was evaluated after the permeability experiment using the paracellular permeability marker Lucifer yellow (LY) in the apical to basolateral direction in each well.
MDCKII or MDCKII-MDR1 cells were cultivated in DMEM (high glucose, GlutaMAXTM supplemented with pyruvate, 10% FBS HI and Pen/Strep). Cells were seeded onto microporous PET (Polyethylene Terephthalate) membranes in HTS 96-Multiwell Insert plates at a density of ˜175,000-245,000 cells/cm^2 (25000-35000 cells/well; 50 μL/well) in DMEM medium and incubated for 3-4 days at 37° C.-5% CO2. Medium was changed the day before the experiment.
Stock solutions of test items were prepared in DMSO at a concentration of 5 or 10 mM and stored at −20° C. until use. The potent P-gp inhibitor, GF120918 (stock solution 10 mM) and the reference controls digoxin, atenolol, metoprolol (stock solutions 3 or 10 mM) were prepared in DMSO and stored at −20° C. until use.
Donor working solutions of test items and reference controls were prepared at a concentration of 10 or 25 µM, diluting the stock solutions in HBSSH. Receiver working solutions contained transport buffer only. All working solutions were prepared such that the final concentration of DMSO was 1% (v/v). A donor working solution containing LY was also prepared in transport buffer at 100 µM.
MDCKII and MDCKII-MDR1 cells were preincubated (37° C., 15 to 30 minutes) in receiver working solutions containing transport buffer on apical (A) and basolateral (B) sides. Following pre-incubation, test items and control items (digoxin) transport were measured in two directions (apical to basolateral [AB]) and basolateral to apical [BA]), and these directions were performed in triplicate sets of wells, in both the absence and presence of […] GF120918 or mock MDCKII cells. For [AB] directional transport, 75 μL of donor working solution was added to the A (apical) compartment and 235 μL of receiver working solution was added to the B (basolateral) compartment. For [BA] directional transport, 235 μL donor working solution with test items or reference controls was added to the B compartment and 75 μL receiver working solution was added to the A compartment. Transport of permeability reference controls, atenolol and metoprolol, were measured in one direction (apical to basolateral [AB]) (n=3).
The cells were incubated (at 37° C., with shaking) for 60 minutes. […]

The mark [1] stands for this setting: apical to basolateral, pH 7.4, 60 min.

T1 sequence (P08183 whole entry): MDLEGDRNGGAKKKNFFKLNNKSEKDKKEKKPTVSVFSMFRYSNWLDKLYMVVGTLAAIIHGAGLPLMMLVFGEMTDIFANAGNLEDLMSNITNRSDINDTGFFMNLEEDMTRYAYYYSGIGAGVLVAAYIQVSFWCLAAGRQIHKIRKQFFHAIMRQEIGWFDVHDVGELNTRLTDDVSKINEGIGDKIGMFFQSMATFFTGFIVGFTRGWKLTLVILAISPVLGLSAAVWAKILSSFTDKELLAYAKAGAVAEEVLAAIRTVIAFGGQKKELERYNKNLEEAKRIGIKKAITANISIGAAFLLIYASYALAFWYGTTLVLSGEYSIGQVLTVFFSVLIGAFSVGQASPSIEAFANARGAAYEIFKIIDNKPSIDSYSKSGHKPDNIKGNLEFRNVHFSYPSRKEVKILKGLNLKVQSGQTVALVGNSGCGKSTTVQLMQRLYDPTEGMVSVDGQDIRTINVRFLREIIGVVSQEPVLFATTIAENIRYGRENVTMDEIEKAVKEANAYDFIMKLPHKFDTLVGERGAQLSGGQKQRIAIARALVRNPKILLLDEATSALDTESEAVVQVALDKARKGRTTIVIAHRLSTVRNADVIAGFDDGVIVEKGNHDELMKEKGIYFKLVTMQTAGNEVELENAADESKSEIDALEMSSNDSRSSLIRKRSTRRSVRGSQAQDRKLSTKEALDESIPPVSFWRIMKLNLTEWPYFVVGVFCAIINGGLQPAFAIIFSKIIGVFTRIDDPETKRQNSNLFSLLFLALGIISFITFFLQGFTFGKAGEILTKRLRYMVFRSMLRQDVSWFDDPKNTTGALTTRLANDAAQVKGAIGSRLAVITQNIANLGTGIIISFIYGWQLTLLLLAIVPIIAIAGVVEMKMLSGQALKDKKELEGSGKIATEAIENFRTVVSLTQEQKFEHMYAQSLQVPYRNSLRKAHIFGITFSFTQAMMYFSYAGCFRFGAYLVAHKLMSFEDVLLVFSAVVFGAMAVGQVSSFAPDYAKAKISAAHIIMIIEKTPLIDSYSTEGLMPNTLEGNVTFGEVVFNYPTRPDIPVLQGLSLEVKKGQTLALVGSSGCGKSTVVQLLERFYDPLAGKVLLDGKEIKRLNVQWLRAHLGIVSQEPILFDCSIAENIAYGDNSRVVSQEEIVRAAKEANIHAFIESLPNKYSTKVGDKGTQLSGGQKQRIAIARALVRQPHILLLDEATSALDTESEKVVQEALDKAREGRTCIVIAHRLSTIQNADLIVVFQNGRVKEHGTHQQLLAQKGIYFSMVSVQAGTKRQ

For the molecule `COC(=O)c1ccc2c(c1)CC(N)C2` (stereo not shown) [CMP-405, 2-aminoindane-5-methylcarboxylate], the Permeability classification result is listed as “highly permeable” and the “P-gp Substrate?” value is “No”. Under setting [1], the Papp A→B at 60 min was 16.2 ×10⁻⁶ cm/s.

Take `CNC(C)Cc1ccc2c(c1)OCO2` (stereo not shown) [MDMA]: the Permeability classification result is on record as “less permeable” and the “P-gp Substrate?” value is reported as “No”. In addition, the “MDCKII Permeability app A > B” value under setting [1] came out at 14 ×10⁻⁶ cm/s. The “MDCKII-MDR1 B-A ratio” value (efflux ratio, MDCKII-MDR1 cells) turned out to be 1.5.

As to `COc1ccc2c(c1)CC(N)C2` (stereo not shown) [MEAI, 5-methoxy-2-aminoindane], the Permeability classification entry was “highly permeable” and the “P-gp Substrate?” value is “No”. The Papp A→B at 60 min under setting [1] was found to be 17.4 ×10⁻⁶ cm/s.
